Our source for the chromatographic logP and activity values is US20070179162A1, “Triazolopyrimdines” (priority 2003, published 2007).

Series [1] is described as follows: logP determination through HPLC (gradient method, acetonitrile/0.1% aqueous phosphoric acid). It counts as physicochemical.
The test system of a further series is Alternaria solani. The series can be described thus: Alternaria test (tomato)/protective. It counts as in vivo. The following applies: tomato plants, protective, applied quantity 750 g/ha, analysis 7 days after inoculation; 100% = no infection. The method, then: Alternaria Test (Tomato)/Protective Solvent: 49 parts by weight N,N-dimethyl formamide Emulsifier: 1 part by weight alkyl aryl polyglycolether To produce an effective active ingredient preparation, 1 part by weight active ingredient is mixed with the specified quantities of solvent and emulsifier and the concentrate is diluted using water to the desired concentration. To test for protective activity, young tomato plants are sprayed with the active ingredient preparation in the specified applied quantity. 1 day after the treatment, the plants are inoculated with a spore suspension of Alternaria solani and then stand 24 hours at 100% relative humidity and 20° C. The plants are then stand at 96% relative humidity and a temperature of 20° C. The analysis is performed 7 days after the inoculation. In this case, 0% means an activity which corresponds to that of the control, while an activity of 100% means that no infection is observed.

As to `CC1CCC(c2c(-c3ncncc3Cl)c(Cl)nc3ncnn23)CC1` (centres unmarked) [Example 1, 5-chloro-6-(5-chloro-4-pyrimidinyl)-7-(4-methylcyclohexyl)[1,2,4]triazolo[1,5-a]pyrimidine], in series [1], the chromatographic logP (as a rule, lipophilicity estimated from chromatographic retention) was 3.27. Moreover, the activity in the series on Alternaria solani is recorded as 100%.
